From paper PMC9739780, “Pharmacokinetic Comparison of Eight Major Compounds of Lonicerae japonicae flos after Oral Administration in Normal Rats and Rats with Liver Injury” (Molecules, 2022)

Tests used:
[1] = Pharmacokinetics after oral administration of LJF extract in normal rats; assay type: in vivo, Sprague-Dawley rats
Procedure: (§1) This method has been successfully applied to study the pharmacokinetics of LJF orally in normal rats and acute liver injury rats. The pharmacokinetic parameters were analyzed using the […] model analysis on the DAS 2.0 platform. The mean plasma concentration–time curves of 3-CQA, 4-CQA, 5-CQA, 3,5-diCQA, 4,5-diCQA, PA, Secoxyloganin, and Sweroside are shown in Figure 4. Pharmacokinetic parameters included: Cmax, Tmax, area under the concentration–time curve (AUC0–t), AUC0–∞, MRT0–t, and MRT0–∞, as shown in Table 6 and Figure 4.
(§2) […] male Sprague-Dawley rats with body weights of 250 ± 20 g were purchased from the Experimental Animal Center of Heilongjiang University of Chinese Medicine and fed in the SPF animal laboratory, under a standard room temperature of 25 ± 2 °C, relative humidity of 50 ± 15%, and a 12 h light/12 h dark cycle. The experiment followed the ethical norms of experimental animals of Heilongjiang University of Chinese Medicine (License number: SCXK (Hei) 2021-004). Twelve rats were randomly divided into normal and model groups of six rats each. After intraperitoneal injection of CCl4 (0.06 mL/kg) for 24 h, blood samples were collected into heparinized tubes via the orbital vein, centrifuged at 2000 r/min for 20 min, and the levels of AST and ALT in serum were determined by the microplate method.
(§3) The pharmacokinetic properties and parameters of 3-CQA, 4-CQA, 5-CQA, 3,5-diCQA, 4,5-diCQA, PA, Secoxyloganin, and Sweroside in rats were studied after oral administration of the LJF extract. […] The supernatant plasma was then transferred to a 1.5 mL centrifuge tube and stored at −20 °C for later use.
(§4) Here, 100 μL aliquots of the plasma sample were thawed and pipetted into centrifuge tubes and 10 μL of chloramphenicol solution (500 ng/mL) and daidzein solution (500 ng/mL) were added, respectively, and 780 μL of methanol was added to precipitate for 5 min. Then, the supernatant was centrifuged for 5 min at 12,000 rp/min. The supernatant was transferred to a nitrogen blowing machine and dried at 40 °C. The residue was reconstituted in 100 μL of 50% methanol, and the sample was filtered through the membrane and then injected into the UPLC-MS/MS system.
(§5) DAS 2.0 software was used to calculate the pharmacokinetic parameters of the […] model, including Cmax, Tmax, AUC0–t, AUC0–∞, MRT0–t, MRT0–∞, and t1/2. The statistical software GraphPad Prism 5.0 was used for graph plotting and statistical analysis of drug duration curves.

[2] = Pharmacokinetics after oral administration of LJF extract in CCl4-induced liver injury model rats; assay type: in vivo, Sprague-Dawley rats; conditions: for AUC(0-t) / AUC(0-inf) / Cmax / MRT last / MRT inf / Tmax / half-life: male, Sprague-Dawley
Procedure: Intraperitoneal injection of CCl4 was used to induce liver injury in rats, and the successful establishment of the model was measured by detecting ALT and AST in rat plasma.
as §1, §2, §3, §4, §5

[3] = male, Sprague-Dawley, rat, normal group (N), oral LJF ethanol extract 15.75 g/kg, plasma, mean ± SD, n = 6, read-out: AUC0–t
[4] = male, Sprague-Dawley, rat, normal group (N), oral LJF ethanol extract 15.75 g/kg, plasma, mean ± SD, n = 6, read-out: AUC0–∞
[5] = male, Sprague-Dawley, rat, normal group (N), oral LJF ethanol extract 15.75 g/kg, plasma, mean ± SD, n = 6, read-out: Cmax
[6] = male, Sprague-Dawley, rat, normal group (N), oral LJF ethanol extract 15.75 g/kg, plasma, mean ± SD, n = 6, read-out: MRT0–t
[7] = male, Sprague-Dawley, rat, normal group (N), oral LJF ethanol extract 15.75 g/kg, plasma, mean ± SD, n = 6, read-out: MRT0–∞
[8] = male, Sprague-Dawley, rat, normal group (N), oral LJF ethanol extract 15.75 g/kg, plasma, mean ± SD, n = 6, read-out: Tmax
[9] = male, Sprague-Dawley, rat, normal group (N), oral LJF ethanol extract 15.75 g/kg, plasma, mean ± SD, n = 6, read-out: t1/2 (converted)
[10] = rat, liver injury model group (M, CCl4), oral LJF ethanol extract 15.75 g/kg, plasma, mean ± SD, n = 6, read-out: AUC0–t
[11] = rat, liver injury model group (M, CCl4), oral LJF ethanol extract 15.75 g/kg, plasma, mean ± SD, n = 6, read-out: AUC0–∞
[12] = rat, liver injury model group (M, CCl4), oral LJF ethanol extract 15.75 g/kg, plasma, mean ± SD, n = 6, read-out: Cmax
[13] = rat, liver injury model group (M, CCl4), oral LJF ethanol extract 15.75 g/kg, plasma, mean ± SD, n = 6, read-out: MRT0–t
[14] = rat, liver injury model group (M, CCl4), oral LJF ethanol extract 15.75 g/kg, plasma, mean ± SD, n = 6, read-out: MRT0–∞
[15] = rat, liver injury model group (M, CCl4), oral LJF ethanol extract 15.75 g/kg, plasma, mean ± SD, n = 6, read-out: Tmax
[16] = rat, liver injury model group (M, CCl4), oral LJF ethanol extract 15.75 g/kg, plasma, mean ± SD, n = 6, read-out: t1/2 (converted)
[17] = result in words, oral LJF extract, rat plasma
[18] = male, Sprague-Dawley, rat, in vivo, po, 15.75 g/kg

SMILES	AUC(0-t) [1, 3]	AUC(0-inf) [1, 4]	Cmax [1, 5]	MRT last [1, 6]	MRT inf [1, 7]	Tmax [1, 8]	half-life [1, 9]	AUC(0-t) [2, 10]	AUC(0-inf) [2, 11]	Cmax [2, 12]	MRT last [2, 13]	MRT inf [2, 14]	Tmax [2, 15]	half-life [2, 16]	AUC0–t, model group compared with the normal group [2, 17]	AUC0–∞, model group compared with the normal group [2, 17]	Cmax, model group compared with the normal group [2, 17]	Tmax, model group compared with the normal group [2, 17]	AUC(0-inf) [1, 18]	AUC(0-t) [1, 18]	also measured
O=C(/C=C/c1ccc(O)c(O)c1)O[C@@H]1[C@H](O)C[C@@](O)(C(=O)O)C[C@@H]1O (stereo in doubt) [4-CQA, 4-caffeoylquinic acid]	2170 ± 616 ng·h/mL	2340 ± 569 ng·h/mL	1110 ± 448 ng/mL	9.65 ± 1.72 h	14.7 ± 4.18 h	0.208 ± 0.0457 h	15.2 ± 5.24 h	5970 ± 1800 ng·h/mL	6810 ± 1140 ng·h/mL	2370 ± 425 ng/mL	10.1 ± 1.06 h	29.7 ± 24.8 h	0.14 ± 0.043 h	42.2 ± 31.7 h	increased	increased	increased	significantly decreased	–	–	–
O=C(/C=C/c1ccc(O)c(O)c1)O[C@H]1C[C@](O)(C(=O)O)C[C@@H](O)[C@H]1O [3-CQA, 3-caffeoylquinic acid]	12100 ng·h/mL	13100 ng·h/mL	5110 ± 1220 ng/mL	13.9 ± 1.31 h	18.2 ± 1.94 h	0.208 ± 0.0457 h	12.9 ± 0.765 h	16400 ng·h/mL	17400 ng·h/mL	6290 ± 1260 ng/mL	13.4 ± 1.67 h	23.3 ± 11.2 h	0.19 ± 0.043 h	12.2 ± 3.12 h	significantly increased	significantly increased	increased but there was no significant difference	–	–	–	–
O=C(/C=C/c1ccc(O)c(O)c1)O[C@@H]1C[C@](O)(C(=O)O)C[C@@H](O)[C@H]1O [5-CQA, 5-caffeoylquinic acid]	–	–	266 ± 102 ng/mL	18 ± 2.34 h	21.4 ± 2.86 h	–	17.9 ± 9.97 h	3570 ± 686 ng·h/mL	3970 ± 712 ng·h/mL	1120 ± 316 ng/mL	–	20.9 ± 8.54 h	–	18.9 ± 18.4 h	increased	increased	increased	not significantly different	–	–	Tmax ([1]; normal group (N), oral LJF ethanol extract 15.75 g/kg, plasma, mean ± SD, n = 6): 0.24 ± 0.03405 h; MRT0–t ([2]; liver injury model group (M, CCl4), oral LJF ethanol extract 15.75 g/kg, plasma, mean ± SD, n = 6): 11.08 ± 2.42 h
O=C(O)c1ccc(O)c(O)c1 [PA, protocatechuic acid]	198 ± 37 ng·h/mL	292 ± 26 ng·h/mL	22.6 ± 8.36 ng/mL	23.2 ± 0.86 h	44.1 ± 16.9 h	0.33 ± 0.13 h	24.8 ± 12.8 h	219 ± 59.1 ng·h/mL	547 ± 209 ng·h/mL	23 ± 2.97 ng/mL	26.6 ± 2.13 h	49.8 ± 28.9 h	0.18 ± 0.034 h	25.5 ± 17 h	–	increased	–	reached the peak earlier	–	–	clearance rate, model group compared with the normal group ([2]; result in words, oral LJF extract): decreased; MRT0–t, model group compared with the normal group [2, 17]: prolonged
C=C[C@H]1[C@H](O[C@@H]2O[C@H](CO)[C@@H](O)[C@H](O)[C@H]2O)OC=C(C(=O)OC)[C@H]1CC(=O)O [Secoxyloganin]	–	–	–	–	–	–	–	–	–	–	–	–	–	–	–	–	–	–	7610 ± 4120 ng·h/mL	6230 ± 1070 ng·h/mL	Cmax [1, 18]: 1510 ± 331 ng/mL; MRT inf [1, 18]: 12.4 ± 1.04 h; MRT last [1, 18]: 11.9 ± 1.69 h; Tmax [1, 18]: 0.46 ± 0.102 h; half-life [1, 18]: 16.1 ± 19.1 h; AUC(0-inf) ([2]; rat, in vivo, po, 15.75 g/kg): 17100 ng·h/mL; AUC(0-t) ([2]; rat, in vivo, po, 15.75 g/kg): 15000 ng·h/mL; Cmax ([2]; rat, in vivo, po, 15.75 g/kg): 4150 ± 377 ng/mL; MRT inf ([2]; rat, in vivo, po, 15.75 g/kg): 18.2 ± 2.24 h; MRT last ([2]; rat, in vivo, po, 15.75 g/kg): 8.74 ± 0.58 h; Tmax ([2]; rat, in vivo, po, 15.75 g/kg): 0.29 ± 0.102 h; half-life ([2]; rat, in vivo, po, 15.75 g/kg): 23.6 ± 3.48 h; Cmax, model group compared with the normal group ([2]; rat, in vivo, po): significantly higher; MRT0–∞, model group compared with the normal group ([2]; rat, in vivo, po): significantly higher; Tmax, model group compared with the normal group ([2]; rat, in vivo, po): significantly lower
C=C[C@H]1[C@H](O[C@@H]2O[C@H](CO)[C@@H](O)[C@H](O)[C@H]2O)OC=C2C(=O)OCC[C@H]21 [Sweroside]	–	–	–	–	–	–	–	–	–	–	–	–	–	–	–	–	–	–	10000 ng·h/mL	9690 ± 1410 ng·h/mL	Cmax [1, 18]: 1930 ± 609 ng/mL; MRT0–t [1, 18]: 12.29 ± 1.14 h; MRT inf [1, 18]: 13.9 ± 1.86 h; Tmax [1, 18]: 0.53 ± 0.38 h; half-life [1, 18]: 9.78 ± 2.87 h; AUC(0-inf) ([2]; rat, in vivo, po, 15.75 g/kg): 16700 ng·h/mL; AUC(0-t) ([2]; rat, in vivo, po, 15.75 g/kg): 16000 ng·h/mL; Cmax ([2]; rat, in vivo, po, 15.75 g/kg): 2364.23 ± 440 ng/mL; MRT inf ([2]; rat, in vivo, po, 15.75 g/kg): 13.7 ± 1.33 h; MRT last ([2]; rat, in vivo, po, 15.75 g/kg): 11.3 ± 0.48 h; Tmax ([2]; rat, in vivo, po, 15.75 g/kg): 0.67 ± 0.26 h; half-life ([2]; rat, in vivo, po, 15.75 g/kg): 11.8 ± 1.51 h; AUC0–∞, model group compared with the normal group ([2]; rat, in vivo, po): significantly higher; Cmax, model group compared with the normal group ([2]; rat, in vivo, po): increased compared with that in the normal group, but there was no significant difference
